# Reference: US20220096597A1, “CARDIO-PROTECTIVE EFFECT OF VASOCONSTRICTION-INHIBITING FACTOR (VIF)” (Rheinisch-Westfälische Technische Hochschule Aachen (RWTH), priority 2019, published 2022)
# Ends that are not written are not given here.
# Tested on: C57BL/6N mice with induced myocardial infarction
# Test: Histology and immunohistochemistry of hearts after induced infarction
# Assay type: in vivo
# Conditions: infarcted mouse heart, up to 28 days; FIG. 6A and 6C
# Description: To further study the newly identified effects of VIF (according to SEQ ID NO: 1), and especially in vivo, 8 to 10 week old wild type male C57BL/6N mice (Charles River, Germany) were intubated under anesthesia (100 mg/kg ketamine, 10 mg/kg xylazine, i.p.) and analgesia (0.1 mg/kg buprenorphine). The mice were ventilated with positive pressure and oxygenation using a rodent respirator (Harvard Apparatus, Germany). […]
# A Gömöri trichrome staining was performed to determine the infarct size. Subsequently, three slices per mouse from 3 to 5 different mice were analyzed using ImageJ. after one of anti-SMA antibody (smooth muscle actin, DAKO, FIG. 6D), anti-MAC3 antibody (BD Pharmingen, FIG. 6B), anti-MPO antibody (Neomarkers, FIG. 6A) and anti-CD31 antibody (Santa Cruz Biotechnology, FIG. 6E) staining, followed by staining with fluorescein isothiocyanate (FITC)—or a Cy3-conjugated secondary antibody (DAKO, Germany). Positively stained cells or double-positive stained cells (FIG. 6C for anti-MAC3/MPO) were counted in three different fields per slice and expressed as cells per field of view (200× magnification).
sequence,measurement,value
HSGFEDELSEVLENQSSQAELKEAVEEPSSKDVME [VIF],infiltration of neutrophils (anti-MPO) compared to non-treated controls,does not lead to an increased infiltration of neutrophils
